Laboratory results reported in ChEMBL document CHEMBL1201862, “PubChem BioAssay data set” (2004).
Where a name gives a salt, the structure may show the parent alone. Calls of active or inactive are those of the source.

Columns and labels:
[1] = target: DNA dC->dU-editing enzyme APOBEC-3G (Homo sapiens, UniProt Q9HC16); format: functional;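 also: Dose-response counterscreen measuring inhibition of APOBEC3G DNA deaminase activity, run while confirming APOBEC3A inhibitors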
[2] = target: DNA dC->dU-editing enzyme APOBEC-3A (Homo sapiens, UniProt P31941); assay: Dose Response confirmation of small molecule APOBEC3A DNA Deaminase Inhibitors via a fluorescence-based single-stranded DNA deaminase assay. [Related pubchem assays (depositor defined):AID493011, AID493024]; format: functional
[3] = target: T1, Aryl hydrocarbon receptor (Homo sapiens, UniProt P35869); assay: Luminescence-based cell-based high throughput dose response assay for activators of the Aryl Hydrocarbon Receptor (AHR). [Related pubchem assays: 2796 (Primary screen (AHR activators in singlicate)), 2845 (Confirmation screen (AHR activators in triplicate)), 434939 (Counterscreen (PXR activators in triplicate)), 2804 (Summary (AHR activators))]; format: ADME
T1 sequence (P35869 whole entry): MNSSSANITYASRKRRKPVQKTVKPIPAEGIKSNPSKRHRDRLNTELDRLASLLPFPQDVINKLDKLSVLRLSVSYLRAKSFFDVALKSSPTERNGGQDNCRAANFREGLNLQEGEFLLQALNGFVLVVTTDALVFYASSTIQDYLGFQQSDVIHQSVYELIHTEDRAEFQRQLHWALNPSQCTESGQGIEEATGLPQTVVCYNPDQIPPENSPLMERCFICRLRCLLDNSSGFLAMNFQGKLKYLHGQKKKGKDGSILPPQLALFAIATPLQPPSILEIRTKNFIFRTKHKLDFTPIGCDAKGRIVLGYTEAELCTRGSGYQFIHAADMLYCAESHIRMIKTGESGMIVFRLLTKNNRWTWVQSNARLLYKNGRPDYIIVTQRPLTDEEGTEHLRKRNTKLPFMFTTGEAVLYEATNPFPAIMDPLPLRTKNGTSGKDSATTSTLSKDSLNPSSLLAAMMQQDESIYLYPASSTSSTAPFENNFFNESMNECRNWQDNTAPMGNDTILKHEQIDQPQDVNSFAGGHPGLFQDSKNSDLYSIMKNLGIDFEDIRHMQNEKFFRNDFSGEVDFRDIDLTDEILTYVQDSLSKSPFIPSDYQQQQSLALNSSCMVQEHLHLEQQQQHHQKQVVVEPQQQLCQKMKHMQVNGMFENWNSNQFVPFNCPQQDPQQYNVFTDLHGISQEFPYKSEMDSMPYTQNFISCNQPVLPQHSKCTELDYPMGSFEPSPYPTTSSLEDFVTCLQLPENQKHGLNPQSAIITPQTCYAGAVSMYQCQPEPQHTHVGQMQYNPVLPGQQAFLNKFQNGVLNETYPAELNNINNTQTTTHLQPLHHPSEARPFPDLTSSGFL

[4] = target: FAD-linked sulfhydryl oxidase ALR (Homo sapiens, UniProt P55789); assay: ALR-catalysed DTT oxidation blockers – biochemical, H2O2 detection, luminescence, cherry-pick, dose response (AID 493248)
[5] = viability of uninfected HEp-2 cells – cell-based, HTS, cytotoxicity control for RSV inhibitor project, dose response (AID 2410); format: functional; conditions: human respiratory syncytial virus
[6] = viability loss in HeLa cells – cytotoxicity control for MgcRacGAP inhibitor project, dose response (AID 624300); format: functional
[7] = target: T2, Rac GTPase-activating protein 1 (Homo sapiens, UniProt Q9H0H5); assay: blockers of MgcRacGAP-driven Rac1 GTP hydrolysis – biochemical, ADP Hunter fluorescence, primary and confirmatory, confirmation (AID 624330); format: functional
T2 sequence (Q9H0H5 whole entry): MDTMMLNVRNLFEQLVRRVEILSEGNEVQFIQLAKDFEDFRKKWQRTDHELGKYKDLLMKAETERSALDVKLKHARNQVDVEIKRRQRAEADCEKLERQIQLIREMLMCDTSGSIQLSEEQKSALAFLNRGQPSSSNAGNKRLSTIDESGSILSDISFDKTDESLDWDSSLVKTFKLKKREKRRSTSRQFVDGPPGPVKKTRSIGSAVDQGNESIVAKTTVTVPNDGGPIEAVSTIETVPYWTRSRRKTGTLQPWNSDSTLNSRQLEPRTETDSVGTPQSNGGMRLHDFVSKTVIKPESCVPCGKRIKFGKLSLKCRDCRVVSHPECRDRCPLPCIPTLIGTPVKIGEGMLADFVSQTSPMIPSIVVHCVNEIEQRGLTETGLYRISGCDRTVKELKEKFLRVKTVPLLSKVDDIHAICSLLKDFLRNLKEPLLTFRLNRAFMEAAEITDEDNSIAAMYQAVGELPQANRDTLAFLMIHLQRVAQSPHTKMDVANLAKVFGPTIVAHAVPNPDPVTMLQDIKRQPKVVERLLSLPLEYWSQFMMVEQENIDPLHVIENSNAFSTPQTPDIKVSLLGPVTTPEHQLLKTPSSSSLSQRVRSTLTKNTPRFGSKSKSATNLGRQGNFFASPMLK

[8] = target: G-protein coupled receptor 35 (Homo sapiens, UniProt Q9HC97); assay: inhibition of zaprinast-stimulated GPR35 beta-arrestin translocation – imaging, U2OS, beta-arrestin-GFP, zaprinast agonist, primary screen (AID 2058); format: functional;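 also: antagonist potency meaning inhibition of agonist-induced arrestin redistribution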
[9] = Luminescence Cell-Based Dose Response HTS to Identify Activators of Luciferase Translation or Activity in H4 […] Cells. [Related pubchem assays: 1829 (Project Summary), 1814 (Primary HTS)]; format: functional
H4 = assay: Luminescence Cell-Based Dose Response HTS to Identify Activators of 5'UTR Stem-Loop Driven Prion Protein mRNA Translation in H4 Neuroglioblastoma Cells. [Related pubchem assays: 1829 (Project Summary), 1814 (Primary HTS)]; format: functional; conditions: Homo sapiens
[10] = target: T3, Short transient receptor potential channel 4 (Mus musculus, UniProt Q9QUQ5); assay: calcium entry via TRPC4 opening agents – cell-based, HEK293 TRPC4/mu-opioid, Fluo-4 calcium, dose response (AID 434937); format: functional
T3 sequence (Q9QUQ5 whole entry): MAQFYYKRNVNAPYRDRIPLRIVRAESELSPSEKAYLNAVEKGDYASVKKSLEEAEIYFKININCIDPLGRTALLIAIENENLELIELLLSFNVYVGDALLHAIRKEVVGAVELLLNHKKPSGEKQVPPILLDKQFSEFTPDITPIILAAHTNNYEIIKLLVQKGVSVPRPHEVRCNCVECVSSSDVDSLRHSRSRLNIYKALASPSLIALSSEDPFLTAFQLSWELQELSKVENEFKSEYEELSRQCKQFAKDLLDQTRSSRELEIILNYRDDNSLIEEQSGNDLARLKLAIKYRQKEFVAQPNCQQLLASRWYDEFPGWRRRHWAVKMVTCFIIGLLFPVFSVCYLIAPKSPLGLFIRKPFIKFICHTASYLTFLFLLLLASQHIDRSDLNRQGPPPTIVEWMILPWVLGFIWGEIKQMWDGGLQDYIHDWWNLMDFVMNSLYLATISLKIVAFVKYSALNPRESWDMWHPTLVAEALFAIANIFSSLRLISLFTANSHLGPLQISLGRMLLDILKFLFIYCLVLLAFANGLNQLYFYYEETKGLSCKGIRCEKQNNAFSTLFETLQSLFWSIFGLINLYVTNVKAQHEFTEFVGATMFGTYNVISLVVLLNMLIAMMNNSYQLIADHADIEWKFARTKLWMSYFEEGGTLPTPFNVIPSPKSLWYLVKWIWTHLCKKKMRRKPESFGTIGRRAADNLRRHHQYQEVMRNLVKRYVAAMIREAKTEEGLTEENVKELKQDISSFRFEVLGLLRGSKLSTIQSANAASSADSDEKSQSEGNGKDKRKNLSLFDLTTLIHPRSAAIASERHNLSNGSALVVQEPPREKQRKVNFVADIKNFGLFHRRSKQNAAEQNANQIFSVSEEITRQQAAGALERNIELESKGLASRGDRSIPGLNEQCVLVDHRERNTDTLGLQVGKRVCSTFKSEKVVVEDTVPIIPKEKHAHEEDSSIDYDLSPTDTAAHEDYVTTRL

[11] = Luminescence Cell-Based Dose Confirmation HTS to Identify Activators of 5'UTR Stem-Loop Driven Alpha-Synuclein mRNA Translation in H4 Neuroglioblastoma Cells. [Related pubchem assays: 1829 (Project Summary), 1814 (Primary HTS)]; format: functional
[12] = P. falciparum Dd2 growth inhibitors, dose response, SYBR Green, cherry-picked samples (AID 1159567); format: functional, cell-based
[13] = growth inhibition of yeast DHODH-expressing 3D7 parasites – SYBR Green, dry powder samples, dose response (AID 1159570); format: functional, cell-based;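 also: parasite growth measured after 72 hours of compound exposure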
[14] = toxicity to human HepG2 hepatoma cells – cell-based, plate reader, dry powder samples, cytotoxicity control, dose response (AID 1159569); format: functional;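 also: inhibitor potency with signal falling toward the positive control level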
[15] = toxicity to human hepatoma HepG2 cells – cell-based, cherry-picked samples, cytotoxicity control, dose response (AID 1159577); format: functional
[16] = growth inhibition of PfATP4-mutant resistant parasites – NITD609-resistant line, SYBR Green, dry powder, dose response (AID 1159571); format: functional, cell-based;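 also: parasites synchronized at ring stage by sorbitol before testing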
[17] = Dd2 malaria parasite growth inhibition potency – SYBR Green, dry powder samples, dose response (AID 1159566); format: functional, cell-based;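 also: potency for growth inhibition with lower SYBR green DNA signal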
[18] = target: G-protein coupled receptor 55 (Homo sapiens, UniProt Q9Y2T6); assay: selective activators of receptor GPR55 – imaging, U2OS cells, beta-arrestin-GFP redistribution, primary screen (AID 1961); format: functional
Estrogen receptor = target: T4, Estrogen receptor (Homo sapiens, UniProt P03372);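 also: potency for inhibiting coactivator peptide recruitment to the receptor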
T4 sequence (P03372 whole entry): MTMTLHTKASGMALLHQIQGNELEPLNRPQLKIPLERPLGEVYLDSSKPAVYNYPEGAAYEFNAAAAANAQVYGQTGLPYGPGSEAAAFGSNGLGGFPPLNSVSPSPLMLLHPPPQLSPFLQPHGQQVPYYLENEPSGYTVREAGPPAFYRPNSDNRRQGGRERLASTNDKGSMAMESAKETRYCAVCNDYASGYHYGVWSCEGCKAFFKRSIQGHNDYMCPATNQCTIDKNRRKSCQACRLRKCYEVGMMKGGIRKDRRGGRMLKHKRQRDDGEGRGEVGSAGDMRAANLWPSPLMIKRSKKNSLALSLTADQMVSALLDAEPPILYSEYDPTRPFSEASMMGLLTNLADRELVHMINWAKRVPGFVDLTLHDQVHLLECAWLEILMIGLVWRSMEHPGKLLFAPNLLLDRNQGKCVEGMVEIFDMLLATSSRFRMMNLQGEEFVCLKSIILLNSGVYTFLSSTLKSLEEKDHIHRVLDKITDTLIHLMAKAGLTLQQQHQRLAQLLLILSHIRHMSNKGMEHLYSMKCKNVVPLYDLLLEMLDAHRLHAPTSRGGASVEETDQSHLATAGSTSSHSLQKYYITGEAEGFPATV

cells [19] = format: functional, cell-based
cells [20] = format: functional, cell-based; remark: listed apart in the source
NADPH oxidase 1 = target: T5, NADPH oxidase 1 (Homo sapiens, UniProt Q9Y5S8); format: functional, cell-based;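 also: Cell-based assay with luminescence read-out, IC50 derived from inhibitor dose-response curves; intracellular ROS from endogenous NOX1 in intact HT29 colon cancer cells; potency of inhibitors that lower the ROS luminescence signal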
T5 sequence (Q9Y5S8 whole entry): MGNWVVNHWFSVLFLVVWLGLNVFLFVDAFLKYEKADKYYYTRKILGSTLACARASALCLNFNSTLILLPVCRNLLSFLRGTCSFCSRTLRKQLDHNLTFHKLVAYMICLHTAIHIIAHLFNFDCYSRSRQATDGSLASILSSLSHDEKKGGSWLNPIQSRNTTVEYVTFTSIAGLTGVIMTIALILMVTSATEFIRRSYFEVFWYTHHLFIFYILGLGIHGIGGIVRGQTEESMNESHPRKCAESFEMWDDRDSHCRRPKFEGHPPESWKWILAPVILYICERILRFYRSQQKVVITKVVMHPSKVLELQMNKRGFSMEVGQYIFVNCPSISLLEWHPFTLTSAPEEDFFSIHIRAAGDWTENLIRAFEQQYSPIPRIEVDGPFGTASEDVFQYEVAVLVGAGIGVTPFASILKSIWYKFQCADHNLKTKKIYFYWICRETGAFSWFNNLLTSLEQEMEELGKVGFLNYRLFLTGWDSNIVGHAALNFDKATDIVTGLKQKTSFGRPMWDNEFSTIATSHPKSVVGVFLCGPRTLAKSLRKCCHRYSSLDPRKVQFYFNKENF

[21] = viability loss in THP-1 monocytes – THP-1 cells, cytotoxicity control for Vif-APOBEC3G degradation inhibitor project, dose response (AID 1117359); format: functional; conditions: THP-1

Sequence of G-protein coupled receptor 35 (Q9HC97 whole entry): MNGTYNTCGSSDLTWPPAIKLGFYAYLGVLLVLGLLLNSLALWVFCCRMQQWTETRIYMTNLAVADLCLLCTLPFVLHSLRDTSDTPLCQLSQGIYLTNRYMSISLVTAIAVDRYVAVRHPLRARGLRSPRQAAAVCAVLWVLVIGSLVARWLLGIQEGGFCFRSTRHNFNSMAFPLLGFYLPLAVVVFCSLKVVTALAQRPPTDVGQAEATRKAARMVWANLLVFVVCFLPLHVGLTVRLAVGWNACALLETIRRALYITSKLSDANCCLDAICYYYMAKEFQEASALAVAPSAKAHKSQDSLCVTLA
Sequence of FAD-linked sulfhydryl oxidase ALR (P55789 whole entry): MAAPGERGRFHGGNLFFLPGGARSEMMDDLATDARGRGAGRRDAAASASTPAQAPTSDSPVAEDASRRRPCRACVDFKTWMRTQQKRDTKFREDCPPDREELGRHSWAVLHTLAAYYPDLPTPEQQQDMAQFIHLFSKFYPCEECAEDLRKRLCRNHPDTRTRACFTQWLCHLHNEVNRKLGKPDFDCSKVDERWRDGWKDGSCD
Sequence of DNA dC->dU-editing enzyme APOBEC-3G (Q9HC16 whole entry): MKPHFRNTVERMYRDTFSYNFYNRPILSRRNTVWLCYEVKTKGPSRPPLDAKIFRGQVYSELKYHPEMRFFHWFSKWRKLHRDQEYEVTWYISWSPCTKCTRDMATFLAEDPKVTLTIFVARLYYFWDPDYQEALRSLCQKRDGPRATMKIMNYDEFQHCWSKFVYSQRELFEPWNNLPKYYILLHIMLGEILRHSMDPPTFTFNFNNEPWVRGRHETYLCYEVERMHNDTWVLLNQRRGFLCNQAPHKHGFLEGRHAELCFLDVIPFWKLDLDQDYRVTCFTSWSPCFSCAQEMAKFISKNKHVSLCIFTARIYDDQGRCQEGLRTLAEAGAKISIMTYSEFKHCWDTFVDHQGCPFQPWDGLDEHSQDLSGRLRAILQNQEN
Sequence of G-protein coupled receptor 55 (Q9Y2T6 whole entry): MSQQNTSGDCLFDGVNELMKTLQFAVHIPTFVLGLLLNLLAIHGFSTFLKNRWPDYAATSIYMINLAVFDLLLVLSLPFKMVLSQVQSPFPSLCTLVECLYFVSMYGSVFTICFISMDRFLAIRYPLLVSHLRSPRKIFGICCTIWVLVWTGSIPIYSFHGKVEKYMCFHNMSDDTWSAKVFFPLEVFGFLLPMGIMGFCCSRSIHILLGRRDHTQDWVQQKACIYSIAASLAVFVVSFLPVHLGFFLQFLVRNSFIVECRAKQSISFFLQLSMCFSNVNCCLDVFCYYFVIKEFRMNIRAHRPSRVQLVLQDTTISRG
Sequence of DNA dC->dU-editing enzyme APOBEC-3A (P31941 whole entry): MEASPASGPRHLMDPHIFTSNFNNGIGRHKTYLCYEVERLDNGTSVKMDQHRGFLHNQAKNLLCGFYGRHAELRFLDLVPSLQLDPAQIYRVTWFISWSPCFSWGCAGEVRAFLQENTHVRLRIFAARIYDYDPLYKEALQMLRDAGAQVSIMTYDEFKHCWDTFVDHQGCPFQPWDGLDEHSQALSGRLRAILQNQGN

SMILES: C#CCn1cc(/C=N/NC(=O)COc2cccc3cccnc23)c2ccccc21
- IC50 [1]: > 100 µM (inactive)
- IC50 [2]: > 100 µM (inactive)
- EC50 [3]: > 0.377 µM (active)

SMILES: COc1ccc(/C=N/Nc2nc3ccccc3[nH]2)cc1OC
- AC50 [4]: 0.285 µM (active)
- CC50 [5]: 20.8 µM (active)
- CC50 [6]: 100 µM (active)
- IC50 [7]: 74 µM (active)
- EC50 [3]: 3.46 µM (active)

SMILES: O=C(Nc1nc2ccccc2s1)c1ccc(N2CCCCC2)c([N+](=O)[O-])c1
- IC50 [8]: 1.12 µM (active)

SMILES: CN(C)c1ccc(-c2sc(Nc3ccccc3)n[n+]2-c2ccc(F)cc2)cc1
- EC50 [9]: 17.8 µM (active)
- IC50 [8]: 1.33 µM (active)
- EC50 (H4): > 120 µM (not active)
- EC50 [10]: 10.6 µM (active)
- EC50 [11]: > 120 µM (not active)

SMILES: C[C@@H]1CN([C@H](C)CO)C(=O)c2cc(C#Cc3ccccc3)cnc2O[C@H]1CN(C)C(=O)CCN1CCCCC1
- AC50 [12]: 2.23 µM (active)
- AC50 [13]: 2.34 µM (active)
- AC50 [14]: 22.9 µM (active)
- AC50 [15]: 35.6 µM (active)
- AC50 [16]: 1.79 µM (active)
- AC50 [17]: 1.49 µM (active)

SMILES: Cc1ccccc1OCCC(=O)Nc1cc(S(=O)(=O)N2CCOCC2)ccc1OC(C)C
- EC50 [18]: 4.27 µM (active)

SMILES: COc1ccc(C2CC(c3c(O)nc4ccc(Cl)cc4c3-c3ccccc3)=NN2S(C)(=O)=O)cc1OC (stereo unspecified)
- IC50 (Estrogen receptor): 12.4 µM (active)

SMILES: COc1cc2ccccc2cc1C(=O)Nc1ccc(C)cc1
- EC50 (cells [19]): 29.2 µM (active)
- EC50 (cells [20]): > 350 µM (not active)
- EC50 [3]: 0.394 µM (active)

SMILES: Fc1ccc2c(c1)Sc1ccccc1N2
- IC50 (NADPH oxidase 1): 0.24 µM (active)

SMILES: CN(C)CCCN1c2ccccc2Sc2ccccc21 [PROMAZINE HYDROCHLORIDE]
- AC50 [4]: 1.28 µM (active)
- IC50 (NADPH oxidase 1): > 17 µM (not active)

SMILES: O=S(=O)(/N=C(\Sc1ccc(Cl)cc1)c1ccccc1)c1ccccc1
- IC50 (Estrogen receptor): > 50 µM (not active)

SMILES: NC(=O)c1ccccc1NC(=O)/C=C/c1ccc(Cl)cc1
- CC50 [21]: > 40 µM (active)

SMILES: O=C(NCCC1CCCCN1S(=O)(=O)c1ccc(F)cc1)C(=O)NCc1ccccn1 (stereo unspecified)
- CC50 [21]: > 40 µM (active)
